Key:
[1] = test system: T cell differentiation and function; test: In vivo assay systems designed to measure T cell differentiation and function
Description: The present invention relates to the isolation and first complete structural determination of a new polypeptide (thymosin α11 ) isolated from thymosin fraction 5, to pharmaceutically acceptable acid and base addition salts thereof and to pharmaceutical compositions containing this compound or its salts.

[2] = test system: Candida albicans; test: Protection of mice against infection with Candida albicans (daily i.p. treatment, intravenous challenge); assay type: in vivo
Description: The biological activity of thymosin a1 can be determined by utilizing in vivo assays known in the art. Thus, for example, inbred strains of mice are known to vary in their susceptibility to infection with C. albicans. Thus, mice of such strains as C3 H/HeJ or CBA/CaJ are highly susceptible to infection, whereas mice of such strains as C57 BI/10SNJ or C57BI/KsJ were highly resistant to challenge. Since resistance to infection with C. albicans is associated with cell-mediated processes, and therefore with T-lymphocytes, thymic hormones should have an effect on the host response.
Thymosin fraction 5, thymosin a1 or α11 was injected daily i.p. in graded doses into three different groups of mice, beginning two days before intravenous challenge with 4x10^4 cells of Candida albicans.
Mice were treated daily with the indicated doses of thymosin fraction 5, thymosin a1 or thymosin α11 and challenged with 4x 10^4 cells of C. a/bicans two days after the start of treatment
^* Three mice from each set were sacrificed on days 7,14 and 21 after infection and the values represent
the average number of organisms in the left kidneys of the nine mice in each set.

## AcSer-Asp-Ala-Ala-Val-Asp-Thr-Ser-Ser-Glu-ile-Thr-Thr-Lys-Asp-Leu-Lys-Glu-Lys-Lys-Glu-Val-Val-Glu-Glu-Ala-Glu-Asn-Gly-Arg-Glu-Ala-Pro-Ala-AsnOH [thymosin α11]
[1]
  biological activity compared with thymosin a1: same qualitative and quantitative biological activity as thymosin a1
[2]; compared on optimum daily doses
  potency relative to fraction 5 in ability to induce resistance to infection with C. albicans: about 30 times
[2]; i.p., daily, resistance to infection with C. albicans
  daily doses at which most active: 160-320 ng per mouse
[2]; injected daily i.p. in graded doses, beginning two days before intravenous challenge with 4x10^4 cells of Candida albicans
  protection in comparison with control mice: provided protection
[2]; resistance to infection with C. albicans
  potency of thymosin a1 and thymosin α11 relative to each other: approximately equal in potency
